Reference: PMC6017357, “In Vitro Inhibitory Effects of Synthetic Cannabinoid EAM-2201 on Cytochrome P450 and UDP-Glucuronosyltransferase Enzyme Activities in Human Liver Microsomes” (Molecules : A Journal of Synthetic Chemistry and Natural …, 2018)

How the values were obtained:
UGT1A4 = biological target: T1, UGT1A4 (Homo sapiens, UniProt P22310); test: UGT1A4-catalyzed trifluoperazine N-glucuronidation in human liver microsomes; assay type: in vitro ADME; details: at 50 µM
T1 construct: ultrapooled human liver microsomes (0.2 mg/mL), 5 mM UDPGA; from tissue; host or cells: ultrapooled human liver microsomes
T1 sequence (P22310 29-534): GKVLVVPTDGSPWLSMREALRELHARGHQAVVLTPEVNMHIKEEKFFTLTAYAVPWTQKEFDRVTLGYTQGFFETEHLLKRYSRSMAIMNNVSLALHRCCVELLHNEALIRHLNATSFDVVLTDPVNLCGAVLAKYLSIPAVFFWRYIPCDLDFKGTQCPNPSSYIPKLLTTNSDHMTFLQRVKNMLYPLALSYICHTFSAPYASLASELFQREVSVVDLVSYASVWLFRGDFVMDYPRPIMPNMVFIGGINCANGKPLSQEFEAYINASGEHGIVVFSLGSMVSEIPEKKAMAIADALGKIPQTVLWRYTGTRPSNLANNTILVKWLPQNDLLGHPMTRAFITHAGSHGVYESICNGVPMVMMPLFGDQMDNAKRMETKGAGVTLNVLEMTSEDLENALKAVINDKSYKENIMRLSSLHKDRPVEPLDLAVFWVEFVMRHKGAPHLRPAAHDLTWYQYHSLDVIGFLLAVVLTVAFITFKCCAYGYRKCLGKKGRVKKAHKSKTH
Experimental: (§1) The inhibitory effects of EAM-2201 on UGT1A1, UGT1A3, UGT1A4, UGT1A6, UGT1A9 and UGT2B7 were evaluated using LC-MS/MS and the cocktail of UGT substrates as previously described. Each incubation mixture was prepared in a final volume of 100 µL as follows: ultrapooled human liver microsomes (0.2 mg/mL), 5 mM UDPGA, 10 mM magnesium chloride, alamethicin (25 µg/mL), 50 mM Tris buffer (pH 7.4), various concentrations of EAM-2201 in DMSO (final concentrations of 1–50 µM, 0.5% DMSO) and the UGT enzyme-specific substrates of two cocktail sets (set A: 0.5 µM SN-38, 2 µM chenodeoxycholic acid and 0.5 µM trifluoperazine; set B: 1 µM N-acetylserotonin, 0.2 µM mycophenolic acid and 1 µM naloxone, acetonitrile content, 0.5%). […] Supernatant from sets A and B (50 µL of each) was mixed and aliquots (5 µL) were analyzed by LC-MS/MS. […]
(§2) The metabolites formed from the six UGT cocktail substrates were simultaneously measured using LC-MS/MS [41]. […] Each metabolite was quantified via SRM in the negative ion mode: chenodeoxycholic acid 24-acyl-β-glucuronide, 567.2 > 391.0; mycophenolic acid glucuronide, 495.2 > 318.9; and propofol glucuronide (IS), 353.3 > 177.1; and in the positive ion mode: SN-38 glucuronide, 569.0 > 393.0; trifluoperazine glucuronide, 584.2 > 408.1; N-acetylserotonin-β-D-glucuronide, 395.2 > 219.0; naloxone 3-β-D-glucuronide, 504.0 > 310.0; and meloxicam (IS), 352.0 > 115.1. […]

UGT1A1 = biological target: T2, UGT1A1 (Homo sapiens, UniProt P22309); test: UGT1A1-catalyzed SN-38 glucuronidation in human liver microsomes; assay type: in vitro ADME; details: at 50 µM
T2 construct: ultrapooled human liver microsomes (0.2 mg/mL), 5 mM UDPGA; from tissue; host or cells: ultrapooled human liver microsomes
T2 sequence (P22309 26-533): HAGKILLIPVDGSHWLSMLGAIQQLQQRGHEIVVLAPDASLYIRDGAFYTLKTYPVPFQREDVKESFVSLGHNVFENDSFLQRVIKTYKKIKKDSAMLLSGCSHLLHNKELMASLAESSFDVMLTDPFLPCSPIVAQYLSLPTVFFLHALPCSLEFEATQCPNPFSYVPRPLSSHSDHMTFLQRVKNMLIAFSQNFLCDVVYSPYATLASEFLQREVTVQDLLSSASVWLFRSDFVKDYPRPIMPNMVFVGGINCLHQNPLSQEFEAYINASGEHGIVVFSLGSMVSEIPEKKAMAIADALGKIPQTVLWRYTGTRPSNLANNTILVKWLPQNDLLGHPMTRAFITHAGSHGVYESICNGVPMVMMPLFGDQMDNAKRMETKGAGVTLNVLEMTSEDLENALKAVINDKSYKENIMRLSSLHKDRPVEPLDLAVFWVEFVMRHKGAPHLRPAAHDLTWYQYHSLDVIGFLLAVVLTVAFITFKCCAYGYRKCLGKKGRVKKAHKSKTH
Experimental: as §1, §2

SMILES: CCc1ccc(C(=O)c2cn(CCCCCF)c3ccccc23)c2ccccc12 [EAM-2201, (4-ethyl-1-naphthalenyl)[1-(5-fluoropentyl)-1H-indol-3-yl]-methanone]
- inhibition of UGT1A4-catalyzed trifluoperazine N-glucuronidation (UGT1A4): negligibly inhibited
- inhibition of UGT1A1-catalyzed SN-38 glucuronidation (UGT1A1): negligibly inhibited
